The target in one experiment is P70S6K (Homo sapiens (Human), UniProt P23443, T412E). Briefly: P70S6K Enzyme Assay. It counts as biochemical. The settings on record: P70S6K T412E mutant, 24 μM ATP, mobility shift (Caliper). On the procedure:
P70S6K inhibitor compounds are diluted and plated in 96 well plates. […] The reaction is incubated for 90 min at 25° C., before the addition of 10 mM EDTA to stop the reaction. The proportion of substrate and product (phosphorylated) peptide is analysed on a Caliper Life Sciences Lab Chip 3000, using a pressure of −1.4 psi, and upstream and downstream voltages of −3000 and −700 respectively. Product peaks are resolved before substrate peaks on the resulting chromatograms.

In the next experiment the target is AKT (Homo sapiens (Human), UniProt P31749). Briefly: AKT Enyzme Assay. It counts as biochemical. The settings on record: His-AKT (Full Length), 160 uM ATP, mobility shift (Caliper). On the procedure:
A TTP Mosquito liquid handling instrument is used to place 125 nl of the appropriate concentration of inhibitor in 100% DMSO (for a dose response curve calculation) into each well of a 384-well plate.
The reaction is incubated for 90 min at 25 C, and then stopped by the addition of 70 μl of Stop buffer (100 mM HEPES pH 7.5, 0.015% Brij-35, 10 mM EDTA (Sigma, E7889)).
The plate is read on a Caliper LC 3000 in an Off-Chip mobility shift assay format, using the following parameters for a 12-sipper chip: screening pressure −2.3 psi, upstream voltage −500, and downstream voltage −3000. These conditions cause unphosphorylated substrate and phosphorylated product peptide to resolve as separate peaks allowing direct measurement of percentage of conversion of substrate to product. The percent conversion can be plotted against concentration of inhibitor to produce a sigmoidal dose response curve, from which an IC50 can be calculated.

Chain of AKT (P31749 whole entry): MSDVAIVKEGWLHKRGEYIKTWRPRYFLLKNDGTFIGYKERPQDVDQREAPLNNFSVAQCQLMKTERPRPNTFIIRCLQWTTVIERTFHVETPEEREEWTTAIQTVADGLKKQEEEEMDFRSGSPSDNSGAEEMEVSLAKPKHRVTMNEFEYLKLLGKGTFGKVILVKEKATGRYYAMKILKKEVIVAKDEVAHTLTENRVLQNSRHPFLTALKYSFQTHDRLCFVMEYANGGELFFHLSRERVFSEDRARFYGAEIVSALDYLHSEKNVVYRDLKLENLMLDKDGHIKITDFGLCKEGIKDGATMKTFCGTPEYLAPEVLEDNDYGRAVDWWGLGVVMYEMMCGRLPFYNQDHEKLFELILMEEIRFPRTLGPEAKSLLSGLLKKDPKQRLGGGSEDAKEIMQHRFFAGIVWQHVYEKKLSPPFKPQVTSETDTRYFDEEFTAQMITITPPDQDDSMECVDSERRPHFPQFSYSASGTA
Chain of P70S6K (P23443 1-421 T412E): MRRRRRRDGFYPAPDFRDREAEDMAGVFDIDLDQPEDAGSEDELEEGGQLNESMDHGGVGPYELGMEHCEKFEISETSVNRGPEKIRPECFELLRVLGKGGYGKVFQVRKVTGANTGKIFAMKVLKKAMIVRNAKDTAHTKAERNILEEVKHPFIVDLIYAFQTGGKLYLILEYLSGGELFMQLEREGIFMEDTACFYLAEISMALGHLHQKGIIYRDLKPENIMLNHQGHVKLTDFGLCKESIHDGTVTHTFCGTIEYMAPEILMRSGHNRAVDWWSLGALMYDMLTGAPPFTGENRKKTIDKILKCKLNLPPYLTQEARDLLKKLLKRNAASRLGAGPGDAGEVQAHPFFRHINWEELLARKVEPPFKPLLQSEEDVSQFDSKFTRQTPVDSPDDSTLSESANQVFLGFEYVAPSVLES

One may read the IC50 as the concentration that inhibits the measured activity by half. As to `NC(=O)c1ccc(N[C@@H]2CNCC[C@H]2c2ccc(F)c(Cl)c2)c2cncnc12` (single isomer, unassigned) [Example 78], the IC50 at P70S6K was determined as 350 nM; on AKT, 5700 nM.

In the case of `NC(=O)c1ccc(N[C@H]2CNCC[C@@H]2c2ccc(F)cc2)c2cncnc12` (single isomer, unassigned) [Example 80], the figures for the IC50 on P70S6K and at AKT were 290 nM and 2200 nM, respectively.

For the compound `NC(=O)c1ccc(N[C@@H]2CNCC[C@H]2c2ccc(F)cc2)c2cncnc12` (single isomer, unassigned) [Example 81], the IC50 at P70S6K is 52 nM; at AKT it was 900 nM.

`Cc1cccc(N2CCC(Nc3ccc(C(N)=O)c4ncncc34)CC2)c1` [Example 57, 5-((1-(m-tolyl)piperidin-4-yl)amino)quinazoline-8-carboxamide]: the figures for the IC50 at P70S6K and at AKT were 22000 nM and more than 100000 nM, respectively.

Regarding `NC(=O)c1ccc(NC[C@@H]2CCNC2)c2cncnc12` [Example 60, (R)-5-((pyrrolidin-3-ylmethyl)amino)quinazoline-8-carboxamide], the IC50 at P70S6K was 4800 nM; on AKT, more than 100000 nM.

On to `NC(=O)c1ccc(NC[C@H]2CCNC2)c2cncnc12` [Example 61, (S)-5-((pyrrolidin-3-ylmethyl)amino)quinazoline-8-carboxamide], for which the IC50 at P70S6K is 1700 nM; on AKT, more than 100000 nM.

In the case of `NC(=O)c1ccc(NCc2cccnc2)c2cncnc12` [Example 62, 5-((pyridin-3-ylmethyl)amino)quinazoline-8-carboxamide], the IC50 at P70S6K turned out to be 1600 nM; on AKT, 70000 nM.

As to `NC(=O)c1ccc(NCc2cccc(Cl)c2)c2cncnc12` [Example 63, 5-((3-chlorobenzyl)amino)quinazoline-8-carboxamide], the IC50 at P70S6K was determined as 59.2 nM; at AKT, 12000 nM.

As for `Cc1cccc([C@@H]2CN(c3ccc(C(N)=O)c4ncncc34)C[C@H]2CO)c1` [Example 67, 5-((3S,4R)-3-(hydroxymethyl)-4-(m-tolyl)pyrrolidin-1-yl)quinazoline-8-carboxamide], the figures for the IC50 at P70S6K and at AKT were 190 nM and 8200 nM, respectively.

Regarding `NC(=O)c1ccc(NC2CCNCC2c2ccc(F)cc2)c2cncnc12` (centres unmarked) [Example 70, 5-((3-(4-fluorophenyl)piperidin-4-yl)amino)quinazoline-8-carboxamide], the IC50 at P70S6K was determined as 550 nM; on AKT it was 2500 nM.

For the compound `NC(=O)c1ccc(NC2CNCC2c2cccc(C(F)(F)F)c2)c2cncnc12` (centres unmarked) [Example 71, 5-((4-(3-(trifluoromethyl)phenyl)pyrrolidin-3-yl)amino)quinazoline-8-carboxamide], the results for the IC50 at P70S6K and on AKT were 21 nM and 4500 nM, respectively.

As to `NC(=O)c1ccc(NC2CNCC2c2cccc(OC(F)(F)F)c2)c2cncnc12` (centres unmarked) [Example 72, 5-((4-(3-(trifluoromethoxy)phenyl)pyrrolidin-3-yl)amino)quinazoline-8-carboxamide], the IC50 on P70S6K is 100 nM; at AKT, more than 100000 nM.

With `Cc1cccc(C2CCNCC2Nc2ccc(C(N)=O)c3ncncc23)c1` (centres unmarked) [Example 73, 5-((4-(m-tolyl)piperidin-3-yl)amino)quinazoline-8-carboxamide], the IC50 at P70S6K amounted to 390 nM; at AKT, 9000 nM.

As to `NC(=O)c1ccc(NC2CNCCC2c2cccc(C(F)(F)F)c2)c2cncnc12` (centres unmarked) [Example 74, 5-((4-(3-(trifluoromethyl)phenyl)piperidin-3-yl)amino)quinazoline-8-carboxamide], the IC50 on P70S6K is 140 nM; on AKT, 2100 nM.

For `NC(=O)c1ccc(NC2CNCCC2c2ccc(Cl)c(F)c2)c2cncnc12` (centres unmarked) [Example 75, 5-((4-(4-chloro-3-fluorophenyl)piperidin-3-yl)amino)quinazoline-8-carboxamide], the results for the IC50 at P70S6K and on AKT were 8.1 nM and 130 nM, respectively.

Turning to `NC(=O)c1ccc(NC2CNCCC2c2ccc(F)c(Cl)c2)c2cncnc12` (centres unmarked) [Example 76, 5-((4-(3-chloro-4-fluorophenyl)piperidin-3-yl)amino)quinazoline-8-carboxamide], the IC50 at P70S6K came to 33 nM; at AKT it was 570 nM.

As to `NC(=O)c1ccc(NC2CNCCC2c2ccc(F)cc2)c2cncnc12` (centres unmarked) [Example 79, 5-((4-(4-fluorophenyl)piperidin-3-yl)amino)quinazoline-8-carboxamide], the IC50 was 290 nM on P70S6K and 2000 nM on AKT.

In the case of `NC(=O)c1ccc(N2CCN(c3ccc(C(F)(F)F)cc3)CC2)c2cncnc12` [Example 90, 5-[4-(4-Trifluoromethyl-phenyl)-piperazin-1-yl]-quinazoline-8-carboxylic acid amide], the IC50 was 24000 nM on P70S6K and more than 100000 nM at AKT.

As to `NC(=O)c1ccc(N2CCN(c3ccccc3)CC2)c2cncnc12` [Example 91, 5-[4-phenyl-piperazin-1-yl]-quinazoline-8-carboxylic acid amide], the IC50 is 3000 nM at P70S6K and 15000 nM at AKT.

On to `NC(=O)c1ccc(N2CCN(c3ccc(F)c(F)c3)CC2)c2cncnc12` [Example 92, 5-[4-(3,4-difluoro-phenyl)-piperazin-1-yl]-quinazoline-8-carboxylic acid amide], for which the IC50 at P70S6K was 1000 nM; at AKT, more than 100000 nM.

Turning to `NC(=O)c1ccc(N2CCN(c3ccc(F)c(Cl)c3)CC2)c2cncnc12` [Example 94, 5-[4-(3-chloro-4-fluorophenyl)-piperazin-1-yl]-quinazoline-8-carboxylic acid amide], the IC50 was 12000 nM at P70S6K and more than 100000 nM at AKT.

As for `NC(=O)c1ccc(N2CCN(c3cccc(F)c3)CC2)c2cncnc12` [Example 95, 5-[4-(3-fluoro-phenyl)-piperazin-1-yl]-quinazoline-8-carboxylic acid amide], the IC50 turned out to be 770 nM on P70S6K and 6400 nM at AKT.

Regarding `NC(=O)c1ccc(N2CCN(c3cccc(Cl)c3)CC2)c2cncnc12` [Example 96, 5-[4-(3-chloro-phenyl)-piperazin-1-yl]-quinazoline-8-carboxylic acid amide], the IC50 at P70S6K was 10000 nM; at AKT, more than 100000 nM.

For `NC(=O)c1ccc(NCCc2ccccc2)c2cncnc12` [Example 98, 5-(phenethylamino)quinazoline-8-carboxamide], the IC50 at P70S6K amounted to 89 nM; on AKT, 5600 nM.

For the compound `NC(=O)c1ccc(NCCc2cccc(F)c2)c2cncnc12` [Example 99, 5-[2-(3-fluorophenyl)ethylamino]quinazoline-8-carboxamide], the IC50 at P70S6K worked out at 120 nM; on AKT, 2400 nM.

With `NC(=O)c1ccc(NCCc2ccc(F)cc2)c2cncnc12` [Example 100, 5-[2-(4-fluorophenyl)ethylamino]quinazoline-8-carboxamide], the half-inhibitory concentration (IC50) on P70S6K was found to be 290 nM; at AKT, 4800 nM.

As for `NC(=O)c1ccc(NCCc2ccc(F)c(F)c2)c2cncnc12` [Example 101, 5-[2-(3,4-difluorophenyl)ethylamino]quinazoline-8-carboxamide], the IC50 on P70S6K was determined as 360 nM; on AKT it was 41000 nM.

Consider `NC(=O)c1ccc(NCCCCc2ccccc2)c2cncnc12` [Example 102, 5-(4-phenylbutylamino)quinazoline-8-carboxamide], for which the results for the IC50 at P70S6K and at AKT were 87 nM and more than 100000 nM, respectively.

Values taken from patent US9139568B2 (Merck Patent GmbH, priority 2011, dated 2015).
